The values that follow are results of earlier work, collected in article PMC8391575, “Identification of Novel Cathepsin B Inhibitors with Implications in Alzheimer’s Disease: Computational Refining and Biochemical Evaluation” (Cells, 2021).

Where two headings read alike, the source gives them in different places. Where only a bound is given, the exact number is not on record here.

The subject of the series is cathepsin B. The following applies: cited from earlier work.
[1] abbreviates: class of the experimental IC50, read-out: Activity Scale Experimental.
Setting [2] is: Table S1, read-out: IC50: half maximal inhibitory concentration.
Setting [3] is: read-out: Activity Scale Experimental.
[4] abbreviates: Figure 1, previously reported inhibitors of cathepsin B, read-out: IC50.

With `N#Cc1c(N2CCCC2)nc(N)c2c(N)nc(N3CCCC3)cc12` [Compound S29, 1,8-diamino-3,6-dipyrrolidin-1-yl-2,7-naphthyridine-4-carbonitrile], under “Table 4”, the “pIC50 Experimental” value is 5.49. Also, the IC50 under setting [1] was above 2500 nM.
As for `Cc1ccc(S(=O)(=O)n2nc(OC(=O)c3cccs3)cc2N)cc1` [Compound S7, [5-amino-1-(4-methylphenyl)sulfonylpyrazol-3-yl] thiophene-2-carboxylate], the “pIC50 Experimental” value (Table 4) is 5.7. In addition, the IC50 is 1990 nM under setting [2] and 300 to 2500 nM under setting [1].
`NC(N)=NCCCCNC(=O)C(Cc1ccccc1)NC(=O)C1OC1C(=O)O` (centres unmarked) [Compound N15, 3-[[1-[4-(diaminomethylideneamino)butylamino]-1-oxo-3-phenylpropan-2-yl]carbamoyl]oxirane-2-carboxylic acid]: the “pIC50 Experimental” value (Table 4) was 6.57. The IC50 under setting [2] is 270 nM and the IC50 under setting [1] was below 300 nM.
On to `COc1cccc(Cn2c(-c3nonc3N)nc3ccccc32)c1` [Compound S27, 4-[1-[(3-methoxyphenyl)methyl]benzimidazol-2-yl]-1,2,5-oxadiazol-3-amine], for which, where the note is “Table 4”, the “pIC50 Experimental” value is 4.34. Moreover, under setting [1], the IC50 is above 2500 nM.
On to `NCCCCNC(=O)[C@H](Cc1ccc(O)cc1)NC(=O)[C@H]1O[C@@H]1C(=O)O` [Compound N7, (2S,3S)-3-{[(2S)-1-[(4-Aminobutyl)amino]-3-(4-hydroxyphenyl)-1-oxo-2-propanyl]carbamoyl}-2-oxiranecarboxylic acid], for which the “pIC50 Experimental” value (Table 4) was 6.55. Moreover, the IC50 under setting [2] is 280 nM and the IC50 under setting [1] is below 300 nM.
For the molecule `COc1ccc(S(=O)(=O)n2nc(OC(=O)c3ccco3)cc2N)cc1` [Compound S15], the “pIC50 Experimental” value (Table 4) is given as 6.03. Besides, under setting [1], the IC50 was 300 to 2500 nM.
In the case of `NCCCCNC(=O)[C@H](Cc1ccccc1)NC(=O)[C@H]1O[C@@H]1C(=O)O` [Compound N6, (2S,3S)-3-({(2S)-1-[(4-Aminobutyl)amino]-1-oxo-3-phenyl-2-propanyl}carbamoyl)-2-oxiranecarboxylic acid], the “pIC50 Experimental” value (Table 4) was 6.58. In addition, the IC50 is, setting by setting: under setting [2], 260 nM; under setting [1], below 300 nM.
In the case of `O=[N+]([O-])NC1=NCCN1Cc1ccc(Cl)nc1` [Compound N10, N-[1-[(6-chloropyridin-3-yl)methyl]-4,5-dihydroimidazol-2-yl]nitramide], where the note is “Table 4”, the “pIC50 Experimental” value is 8.03. The IC50 under setting [1] is below 300 nM.
Turning to `COc1cc(O)c2c(=O)cc(-c3ccc(O)c(-c4c(O)cc(O)c5c(=O)cc(-c6ccc(O)cc6)oc45)c3)oc2c1` [Compound N21, 5,7-dihydroxy-8-[2-hydroxy-5-(5-hydroxy-7-methoxy-4-oxochromen-2-yl)phenyl]-2-(4-hydroxyphenyl)chromen-4-one], under “Table 4”, the “pIC50 Experimental” value is 5.77. Further, the IC50 was 1680 nM under setting [2] and 300 to 2500 nM under setting [1].
As to `CC1=C(O)C(=O)C=C2C1=CC=C1[C@@]2(C)CC[C@@]2(C)[C@@H]3C[C@](C)(C(=O)O)CC[C@]3(C)CC[C@]12C` [Compound N8, (2R,4aS,6aR,6aS,14aS,14bR)-10-hydroxy-2,4a,6a,6a,9,14a-hexamethyl-11-oxo-1,3,4,5,6,13,14,14b-octahydropicene-2-carboxylic acid], the “pIC50 Experimental” value (Table 4) is listed as 3.91. Also, the IC50 is 1250 nM under setting [2], above 2500 nM under setting [1] and 125000 nM (read-out: IC50).
For the molecule `CC(C)CC(NC(=O)C1OC1C(=O)O)C(=O)NCCCCCO` (centres unmarked) [Compound N1, 3-[[1-(5-hydroxypentylamino)-4-methyl-1-oxopentan-2-yl]carbamoyl]oxirane-2-carboxylic acid], the “pIC50 Experimental” value (Table 4) is on record as 7.14. Also, the IC50 under setting [1] was below 300 nM.
Regarding `COc1cc(OC)cc(-c2cc3cnc(N)nc3nc2NC(=O)NC(C)(C)C)c1` [Compound N18, 1-[2-amino-6-(3,5-dimethoxyphenyl)pyrido[2,3-d]pyrimidin-7-yl]-3-tert-butylurea], the “pIC50 Experimental” value (Table 4) is given as 6.24. Also, the IC50 reads like this: under setting [2], 580 nM; under setting [1], 300 to 2500 nM.
With `CC(C)C[C@H](NC(=O)[C@H]1O[C@@H]1C(=O)O)C(=O)NCCCCN=C(N)N` [Compound N13, (2S,3S)-3-[[(2S)-1-[4-(diaminomethylideneamino)butylamino]-4-methyl-1-oxopentan-2-yl]carbamoyl]oxirane-2-carboxylic acid], where the note is “Table 4”, the “pIC50 Experimental” value was 8.28. Besides, the IC50 under setting [1] is below 300 nM.
Take `CCSc1ccccc1C(=O)n1nnc2ccccc21` [Compound S28, benzotriazol-1-yl-(2-ethylsulfanylphenyl)methanone]: where the note is “Table 4”, the “pIC50 Experimental” value is 5.15. Besides, the IC50 under setting [1] is above 2500 nM.
As for `CCn1nc(-c2ccccc2)nc2c(=O)n(C)c(=O)nc1-2` [Compound S9, 1-ethyl-6-methyl-3-phenylpyrimido[5,4-e][1,2,4]triazine-5,7-dione], the “pIC50 Experimental” value is listed as 7.15. In addition, the IC50 under setting [3] is below 300 nM.
For the molecule `CCC(=O)Oc1oc(-c2ccccc2)nc1/C=N/c1ccccc1OC` [Compound S21, [4-[(2-methoxyphenyl)iminomethyl]-2-phenyl-1,3-oxazol-5-yl] propanoate], the “pIC50 Experimental” value (Table 4) was 4.39. In addition, under setting [1], the IC50 was above 2500 nM.
Take `Cc1ccc(S(=O)(=O)n2nc(OC(=O)c3ccco3)cc2N)cc1` [Compound S12, [5-amino-1-(4-methylphenyl)sulfonylpyrazol-3-yl] furan-2-carboxylate]: the “pIC50 Experimental” value (Table 4) is 5.76. In addition, the IC50 under setting [2] is 1750 nM and the IC50 under setting [1] is 300 to 2500 nM.
With `O=c1cc(-c2ccc(O)c(-c3c(O)cc(O)c4c(=O)cc(-c5ccc(O)cc5)oc34)c2)oc2cc(O)cc(O)c12` [Compound N3, 8-[5-(5,7-dihydroxy-4-oxochromen-2-yl)-2-hydroxyphenyl]-5,7-dihydroxy-2-(4-hydroxyphenyl)chromen-4-one], the IC50 was 1170 nM under setting [4], 1750 nM under setting [2] and 300 to 2500 nM under setting [1]. Also, for the setting “Table 4”, the “pIC50 Experimental” value is listed as 5.76.
Consider `NC(N)=NCCCCNC(=O)C(Cc1ccc(O)cc1)NC(=O)C1OC1C(=O)O` (centres unmarked) [Compound N16, 3-[[1-[4-(diaminomethylideneamino)butylamino]-3-(4-hydroxyphenyl)-1-oxopropan-2-yl]carbamoyl]oxirane-2-carboxylic acid], for which the “pIC50 Experimental” value (Table 4) was 6.49. The IC50 under setting [2] is 320 nM and the IC50 under setting [1] was 300 to 2500 nM.
`COc1ccc(-c2cc(=O)c3c(O)cc(O)cc3o2)cc1-c1c(O)cc(O)c2c(=O)cc(-c3ccc(O)cc3)oc12` [AMF5, 4’-methylamentoflavone]: the IC50 under setting [4] was 810 nM.
As to `O=c1cc(-c2ccc(Oc3c(O)cc4oc(-c5ccc(O)cc5)cc(=O)c4c3O)cc2)oc2cc(O)cc(O)c12` [HIF, Hinokiflavone], under setting [4], the IC50 is 580 nM.
As for `O=C(Oc1oc(-c2ccco2)nc1/C=N/c1ccccc1)c1ccco1` [Compound S22, [2-(furan-2-yl)-4-(phenyliminomethyl)-1,3-oxazol-5-yl] furan-2-carboxylate], the “pIC50 Experimental” value (Table 4) is recorded as 4.41. Under setting [1], the IC50 was above 2500 nM.
On to `CCCNC(=O)[C@H]1OC1C(=O)N[C@H](C(=O)N1CCC[C@H]1C(=O)O)[C@@H](C)CC` (stereo partly drawn) [Compound S1, (2S)-1-[(2S,3S)-3-methyl-2-[[(3S)-3-(propylcarbamoyl)oxirane-2-carbonyl]amino]pentanoyl]pyrrolidine-2-carboxylic acid], for which the “pIC50 Experimental” value (Table 4) is given as […]. The IC50 under setting [1] is […].
`CCOC(=O)[C@H]1O[C@@H]1C(=O)N[C@H](C(=O)N1CCC[C@H]1C(=O)O)[C@@H](C)CC` [Compound S2, (2S)-1-[(2S,3S)-2-[[(2S,3S)-3-ethoxycarbonyloxirane-2-carbonyl]amino]-3-methylpentanoyl]pyrrolidine-2-carboxylic acid]: for the setting “Table 4”, the “pIC50 Experimental” value was 8.55. Moreover, the IC50 under setting [1] is below 300 nM.
In the case of `Nc1cc(OC(=O)c2cccs2)nn1S(=O)(=O)c1ccc(F)cc1` [Compound S32, [5-amino-1-(4-fluorophenyl)sulfonylpyrazol-3-yl] thiophene-2-carboxylate], under “Table 4”, the “pIC50 Experimental” value was 6.36. Moreover, under setting [1], the IC50 is 300 to 2500 nM.
For the molecule `CC(C)CCNC(=O)[C@H](CC(C)C)NC(=O)[C@H]1O[C@@H]1C(=O)O` [Compound N14, (2S,3S)-3-[[(2S)-4-methyl-1-(3-methylbutylamino)-1-oxopentan-2-yl]carbamoyl]oxirane-2-carboxylic acid], the “pIC50 Experimental” value was 8.47. For the same molecule, the IC50 under setting [3] is below 300 nM.
In the case of `O=C(CSc1nnc(-c2ccco2)c(-c2ccco2)n1)Nc1ccccc1` [Compound S37, 2-[[5,6-bis(furan-2-yl)-1,2,4-triazin-3-yl]sulfanyl]-N-phenylacetamide], the “pIC50 Experimental” value (Table 4) is reported as 5.65. Further, the IC50 under setting [1] is 300 to 2500 nM.
Consider `Nc1nonc1-c1nc2ccccc2n1Cc1ccc(F)cc1` [Compound S5, 4-[1-[(4-fluorophenyl)methyl]benzimidazol-2-yl]-1,2,5-oxadiazol-3-amine], for which the “pIC50 Experimental” value (Table 4) is given as 4.47. In addition, the IC50 under setting [1] was above 2500 nM.
On to `CC(=O)NC(=O)NC1OC(=O)C(Cl)=C1Cl` (centres unmarked) [Compound S16, N-[(3,4-dichloro-5-oxo-2H-furan-2-yl)carbamoyl]acetamide], for which, under “Table 4”, the “pIC50 Experimental” value is 5.67. Besides, the IC50 was 2120 nM under setting [2] and 300 to 2500 nM under setting [1].
Take `COc1ccc(C(=O)C(OC(=O)CNC(=O)c2ccco2)c2ccccc2)cc1` (centres unmarked) [Compound S36, [2-(4-methoxyphenyl)-2-oxo-1-phenylethyl] 2-(furan-2-carbonylamino)acetate]: the “pIC50 Experimental” value (Table 4) is 4.74. The IC50 under setting [1] is above 2500 nM.
As to `COc1cc(O)c2c(=O)cc(-c3ccc(OC)c(-c4c(O)cc(O)c5c(=O)cc(-c6ccc(O)cc6)oc45)c3)oc2c1` [Compound N17, 5,7-dihydroxy-8-[5-(5-hydroxy-7-methoxy-4-oxochromen-2-yl)-2-methoxyphenyl]-2-(4-hydroxyphenyl)chromen-4-one], under “Table 4”, the “pIC50 Experimental” value is on record as 6.26. In addition, the IC50 is 550 nM under setting [2] and 300 to 2500 nM under setting [1].
